{"source": "patent US20230250129A1", "about": "“NEUROACTIVE STEROIDS AND COMPOSITIONS THEREOF” (Sage Therapeutics, Inc., priority 2020, published 2023)", "data": [{"biological_target": "[35S]-TBPS binding, rat brain cortical membranes (GABAA receptor)", "assay": "Steroid inhibition of [35S]-TBPS binding", "conditions": "3 nM [35S]-TBPS, in the presence of 5 mM GABA, 90 min at room temp", "description": "Steroid Inhibition of TBPS Binding\n[^35S]-t-Butylbicyclophosphorothionate (TBPS) binding assays using rat brain cortical membranes in the presence of 5 mM GABA has been described (Gee et al, J. Pharmacol. Exp. Ther. 1987, 241, 346-353; Hawkinson et al, Mol. Pharmacol. 1994, 46, 977-985; Lewin, A. H et al., Mol. Pharmacol. 1989, 35, 189-194).\nBriefly, cortices are rapidly removed following decapitation of carbon dioxide-anesthetized Sprague-Dawley rats (200-250 g). The cortices are homogenized in 10 volumes of ice-cold 0.32 M sucrose using a glass/teflon homogenizer and centrifuged at 1500×g for 10 min at 4° C. The resultant supernatants are centrifuged at 10,000×g for 20 min at 4° C. to obtain the P2 pellets. The P2 pellets are resuspended in 200 mM NaCl/50 mM Na—K phosphate pH 7.4 buffer and centrifuged at 10,000×g for 10 min at 4° C. This washing procedure is repeated twice and the pellets are resuspended in 10 volumes of buffer. Aliquots ([…]) of the membrane suspensions are incubated with 3 nM [^35S]-TBPS and […] aliquots of test drug dissolved in dimethyl sulfoxide (DMSO) (final 0.5%) in the presence of 5 mM GABA. The incubation is brought to a final volume of 1.0 mL with buffer. Nonspecific binding is determined in the presence of […] and ranged from 15 to 25%. Following a 90 min incubation at room temp, the assays are terminated by filtration through glass fiber filters (Schleicher and Schuell No. 32) using a cell harvester (Brandel) and rinsed three times with ice-cold buffer. Filter bound radioactivity is measured by liquid scintillation spectrometry. Non-linear curve fitting of the overall data for each drug averaged for each concentration is done using Prism (GraphPad). […] The concentration of test compound producing 50% inhibition (IC50) of specific binding and the maximal extent of inhibition (Imax) are determined for the individual experiments with the same model used for the overall data and then the means±SEM.s of the individual experiments are calculated.\nVarious compounds are or can be screened to determine their potential as modulators of [^35S]-TBPS binding in vitro. These assays are or can be performed in accordance with the above", "units": {"IC50": "nM"}, "values": [{"smiles": "CCC[C@@]1(O)CC[C@H]2[C@H](CC[C@@H]3[C@@H]2CC[C@]2(C)[C@@H](C(=O)Nc4cnc(C#N)cn4)CC[C@@H]32)C1", "note": "[Compound 69, (3R,5R,8R,9R,10S,13S,14S,17S)—N-(5-cyanopyrazin-2-yl)-3-hydroxy-13-methyl-3-propylhexadecahydro-1H-cyclopenta[a]phenanthrene-17-carboxamide]", "IC50": "< 100"}, {"smiles": "COC[C@@]1(O)CC[C@@]2(C)[C@H](CC[C@@H]3[C@@H]2CC[C@]2(C)[C@@H](C(=O)Nc4ccc(C#N)cn4)CC[C@@H]32)C1", "note": "[Compound 70, (3R,5R,8R,9S,10S,13S,14S,17S)—N-(5-cyanopyridin-2-yl)-3-hydroxy-3-(methoxymethyl)-10,13-dimethylhexadecahydro-1H-cyclopenta[a]phenanthrene-17-carboxamide]", "IC50": "< 100"}, {"smiles": "COC[C@@]1(O)CC[C@H]2[C@H](CC[C@@H]3[C@@H]2CC[C@]2(C)[C@@H](C(=O)Nc4ccc(C#N)cn4)CC[C@@H]32)C1", "note": "[Compound 71, (3R,5R,8R,9R,10S,13S,14S,17S)—N-(5-cyanopyridin-2-yl)-3-hydroxy-3-(methoxymethyl)-13-methylhexadecahydro-1H-cyclopenta[a]phenanthrene-17-carboxamide]", "IC50": "< 100"}, {"smiles": "COC[C@@]1(O)CC[C@@]2(C)[C@H](CC[C@@H]3[C@@H]2CC[C@]2(C)[C@@H](C(=O)Nc4cnc(C#N)cn4)CC[C@@H]32)C1", "note": "[Compound 72, (3R,5R,8R,9S,10S,13S,14S,17S)—N-(5-cyanopyrazin-2-yl)-3-hydroxy-3-(methoxymethyl)-10,13-dimethylhexadecahydro-1H-cyclopenta[a]phenanthrene-17-carboxamide]", "IC50": "< 100"}, {"smiles": "COC[C@@]1(O)CC[C@H]2[C@H](CC[C@@H]3[C@@H]2CC[C@]2(C)[C@@H](C(=O)Nc4cnc(C#N)cn4)CC[C@@H]32)C1", "note": "[Compound 73, (3R,5R,8R,9R,10S,13S,14S,17S)—N-(5-cyanopyrazin-2-yl)-3-hydroxy-3-(methoxymethyl)-13-methylhexadecahydro-1H-cyclopenta[a]phenanthrene-17-carboxamide]", "IC50": "< 100"}, {"smiles": "CCC[C@@]1(O)CC[C@@]2(C)[C@H](CC[C@@H]3[C@@H]2CC[C@]2(C)[C@@H](C(=O)Nc4cnc(C#N)cn4)CC[C@@H]32)C1", "note": "[Compound 74, (3R,5R,8R,9S,10S,13S,14S,17S)—N-(5-cyanopyrazin-2-yl)-3-hydroxy-10,13-dimethyl-3-propylhexadecahydro-1H-cyclopenta[a]phenanthrene-17-carboxamide]", "IC50": "< 100"}, {"smiles": "CCOC[C@@]1(O)CC[C@@]2(C)[C@H](CC[C@@H]3[C@@H]2CC[C@]2(C)[C@@H](C(=O)Nc4cnc(C#N)cn4)CC[C@@H]32)C1", "note": "[Compound 75, (3R,5R,8R,9S,10S,13S,14S,17S)—N-(5-cyanopyrazin-2-yl)-3-(ethoxymethyl)-3-hydroxy-10,13-dimethylhexadecahydro-1H-cyclopenta[a]phenanthrene-17-carboxamide]", "IC50": "< 100"}, {"smiles": "CCOC[C@@]1(O)CC[C@H]2[C@H](CC[C@@H]3[C@@H]2CC[C@]2(C)[C@@H](C(=O)Nc4cnc(C#N)nc4)CC[C@@H]32)C1", "note": "[Compound 76, (3R,5R,8R,9R,10S,13S,14S,17S)—N-(2-cyanopyrimidin-5-yl)-3-(ethoxymethyl)-3-hydroxy-13-methylhexadecahydro-1H-cyclopenta[a]phenanthrene-17-carboxamide]", "IC50": "< 100"}, {"smiles": "CCOC[C@@]1(O)CC[C@H]2[C@H](CC[C@@H]3[C@@H]2CC[C@]2(C)[C@@H](C(=O)Nc4cc(C#N)ncn4)CC[C@@H]32)C1", "note": "[Compound 77, (3R,5R,8R,9R,10S,13S,14S,17S)—N-(6-cyanopyrimidin-4-yl)-3-(ethoxymethyl)-3-hydroxy-13-methylhexadecahydro-1H-cyclopenta[a]phenanthrene-17-carboxamide]", "IC50": "< 100"}, {"smiles": "CCOC[C@@]1(O)CC[C@H]2[C@H](CC[C@@H]3[C@@H]2CC[C@]2(C)[C@@H](C(=O)Nc4ccnc(C#N)n4)CC[C@@H]32)C1", "note": "[Compound 78, (3R,5R,8R,9R,10S,13S,14S,17S)—N-(2-cyanopyrimidin-4-yl)-3-(ethoxymethyl)-3-hydroxy-13-methylhexadecahydro-1H-cyclopenta[a]phenanthrene-17-carboxamide]", "IC50": "< 100"}, {"smiles": "CCOC[C@@]1(O)CC[C@H]2[C@H](CC[C@@H]3[C@@H]2CC[C@]2(C)[C@@H](C(=O)Nc4nccc(C#N)n4)CC[C@@H]32)C1", "note": "[Compound 79, (3R,5R,8R,9R,10S,13S,14S,17S)—N-(4-cyanopyrimidin-2-yl)-3-(ethoxymethyl)-3-hydroxy-13-methylhexadecahydro-1H-cyclopenta[a]phenanthrene-17-carboxamide]", "IC50": "100 to 1000"}, {"smiles": "CCC[C@@]1(O)CC[C@H]2[C@H](CC[C@@H]3[C@@H]2CC[C@]2(C)[C@@H](C(=O)Nc4ccc(F)cn4)CC[C@@H]32)C1", "note": "[Compound 81, (3R,5R,8R,9R,10S,13S,14S,17S)—N-(5-fluoropyridin-2-yl)-3-hydroxy-13-methyl-3-propylhexadecahydro-1H-cyclopenta[a]phenanthrene-17-carboxamide]", "IC50": "< 100"}, {"smiles": "CCOC[C@@]1(O)CC[C@H]2[C@H](CC[C@@H]3[C@@H]2CC[C@]2(C)[C@@H](C(=O)Nc4ncc(C#N)cn4)CC[C@@H]32)C1", "note": "[Compound 82, (3R,5R,8R,9R,10S,13S,14S,17S)—N-(5-cyanopyrimidin-2-yl)-3-(ethoxymethyl)-3-hydroxy-13-methylhexadecahydro-1H-cyclopenta[a]phenanthrene-17-carboxamide]", "IC50": "100 to 1000"}, {"smiles": "CCC[C@@]1(O)CC[C@H]2[C@H](CC[C@@H]3[C@@H]2CC[C@]2(C)[C@@H](C(=O)Nc4cncc(C#N)n4)CC[C@@H]32)C1", "note": "[Compound 83, (3R,5R,8R,9R,10S,13S,14S,17S)—N-(6-cyanopyrazin-2-yl)-3-hydroxy-13-methyl-3-propylhexadecahydro-1H-cyclopenta[a]phenanthrene-17-carboxamide]", "IC50": "< 100"}, {"smiles": "CCC[C@@]1(O)CC[C@H]2[C@H](CC[C@@H]3[C@@H]2CC[C@]2(C)[C@@H](C(=O)Nc4cc(C#N)ncn4)CC[C@@H]32)C1", "note": "[Compound 84, (3R,5R,8R,9R,10S,13S,14S,17S)—N-(6-cyanopyrimidin-4-yl)-3-hydroxy-13-methyl-3-propylhexadecahydro-1H-cyclopenta[a]phenanthrene-17-carboxamide]", "IC50": "< 100"}, {"smiles": "C[C@H]1C[C@H]2[C@H](CC[C@@H]3[C@@H]2CC[C@]2(C)[C@@H](C(=O)Nc4ccc(C#N)nc4)CC[C@@H]32)C[C@]1(C)O", "note": "[Compound 85, (2S,3S,5R,8R,9R,10S,13S,14S,17S)—N-(6-cyanopyridin-3-yl)-3-hydroxy-2,3,13-trimethylhexadecahydro-1H-cyclopenta[a]phenanthrene-17-carboxamide]", "IC50": "< 100"}, {"smiles": "CCC[C@@]1(O)CC[C@H]2[C@H](CC[C@@H]3[C@@H]2CC[C@]2(C)[C@@H](C(=O)Nc4cnc(C#N)nc4)CC[C@@H]32)C1", "note": "[Compound 86, (3R,5R,8R,9R,10S,13S,14S,17S)—N-(2-cyanopyrimidin-5-yl)-3-hydroxy-13-methyl-3-propylhexadecahydro-1H-cyclopenta[a]phenanthrene-17-carboxamide]", "IC50": "100 to 1000"}, {"smiles": "CCC[C@@]1(O)CC[C@H]2[C@H](CC[C@@H]3[C@@H]2CC[C@]2(C)[C@@H](C(=O)Nc4ccnc(C#N)n4)CC[C@@H]32)C1", "note": "[Compound 87, (3R,5R,8R,9R,10S,13S,14S,17S)—N-(2-cyanopyrimidin-4-yl)-3-hydroxy-13-methyl-3-propylhexadecahydro-1H-cyclopenta[a]phenanthrene-17-carboxamide]", "IC50": "< 100"}, {"smiles": "C[C@H]1C[C@H]2[C@H](CC[C@@H]3[C@@H]2CC[C@]2(C)[C@@H](C(=O)Nc4cnc(C#N)cn4)CC[C@@H]32)C[C@]1(C)O", "note": "[Compound 88, (2S,3S,5R,8R,9R,10S,13S,14S,17S)—N-(5-cyanopyrazin-2-yl)-3-hydroxy-2,3,13-trimethylhexadecahydro-1H-cyclopenta[a]phenanthrene-17-carboxamide]", "IC50": "< 100"}, {"smiles": "COC[C@@]1(O)CC[C@H]2[C@H](CC[C@@H]3[C@@H]2CC[C@]2(C)[C@@H](C(=O)Nc4cnc(C#N)nc4)CC[C@@H]32)C1", "note": "[Compound 89, (3R,5R,8R,9R,10S,13S,14S,17S)—N-(2-cyanopyrimidin-5-yl)-3-hydroxy-3-(methoxymethyl)-13-methylhexadecahydro-1H-cyclopenta[a]phenanthrene-17-carboxamide]", "IC50": "< 100"}]}]}
